Test results from publication PMC4464647, “ANO1 (TMEM16A) in pancreatic ductal adenocarcinoma (PDAC)” (Pflugers Archiv, 2014).
d = 2'-deoxy (DNA)

Legend:
[1] = tested on: Capan-1 cells; assay: BrdU incorporation cell proliferation assay; type: cell-based, human; conditions: Capan-1, inhibitor 20 μM, 24 h
Experimental: (§1) To assess cell proliferation and apoptosis, cells were plated in duplicates on a 96-well plate and incubated in 100 μl of the cell line appropriate media described above. Cells were transfected with siRNA soon after complete attachment (approx. 3 h after seeding). Cells were treated with vehicle, 20 μM gemcitabine, 20 μM T16Ainh-A01, or 10 μM free NS3728 (see below) after culture in a humidified 37 °C and 5 % CO2 incubator overnight. BrdU incorporation was measured using Cell Proliferation ELISA, BrdU (chemiluminescent) (Roche Diagnostics A/S, Denmark) following the manufacturer’s instructions. Caspases 3, 6, and 7 activation was evaluated using Homogeneous Caspases Assay (fluorimetric) (Roche Diagnostics A/S, Denmark).
(§2) Fig. 7 VRAC, but not ANO1, regulates cellular proliferation. a Summary of BrdU incorporation in HPDE, Capan-1, AsPC-1, and BxPC-3 cells after various treatments as indicated. Cells were transfected shortly after complete attachment (approx. 3 h) and BrdU incorporation was assessed 36 h after transfection. To investigate effect of inhibitors, cells were incubated for 24 h with respective inhibitor. Values shown are relative to appropriate control. Data shown represents mean ± s.e.m. of n = 4–6 individual experiments. **p ≤ 0.01 and ***p ≤ 0.001 when compared with control

[2] = tested on: HPDE, Capan-1, AsPC-1 and BxPC-3 cells; assay: Homogeneous caspases assay after gemcitabine treatment; type: cell-based, human; conditions: T16Ainh-A01, 24 h
Experimental: as §1, with “Denmark). […]” for “Denmark).”

[3] = tested on: bronchial epithelial cells; set-up: method as in Scudieri et al. [39]; conditions: ref Scudieri et al. [39], cited from earlier work
[4] = tested on: HPDE cells; assay: BrdU incorporation cell proliferation assay; type: cell-based, human; conditions: inhibitor 20 μM, 24 h
Experimental: as §1, §2

[5] = tested on: ANO1; assay: Western blot of ANO1 protein expression after siRNA knockdown; type: cell-based, human; conditions: 36 h after transfection, β-actin loading control
Experimental: DharmaFECT 1 Transfection Reagent (Thermo Scientific, Germany) was used for transfection of siRNA targeting ANO1 (50 nM final concentration) or scrambled (5 nM final concentration). Cells were transfected according to the manufacturer’s protocol. Predesigned siRNA oligo was obtained from Sigma-Aldrich (5′-[…][dT][dT]-3′, 5′-[…][dT][dT]-3′) or negative control (Silencer® Negative Control No. 1 siRNA; Ambion, Denmark). ANO1 overexpressing HEK293 cells were generated by adding 0.5 μg/ml mANO1-GFP vector to DMEM containing 1 % v/v penicillin and streptomycin. The mixture was vortexed and incubated for 5 min, and 20 μg/ml polyethylenimine (PEI) was added. The mixture was vortexed again and added drop-wise to 60 % confluent HEK293 cells in DMEM medium containing 5 % v/v FBS and 1 % v/v penicillin and streptomycin after 10 min incubation at room temperature. Media was changed after 4 h incubation at 37 °C and 5 % CO2.
Protein was isolated from cells 36 h after transfection with siRNA targeting ANO1, in a lysis buffer containing (in mM): 10 Tris–HCl, 10 EDTA, 1 % sodium dodecyl sulfate (SDS), 0.5 % sodium deoxycholate, and 1 % complete protease inhibitor mixture (Roche, Denmark), pH 7.4, and was separated by 7 % SDS-PAGE. Protein was subsequently transferred to nitrocellulose membrane (Novex, Denmark). […]
Fig. 3 ANO1 is the major contributor of CaCC currents in PDAC cells and is sensitive to Cl^− channel inhibitors and siRNA. Whole-cell patch-clamp recordings with 1 μM Ca^2+ in pipette solution. a Representative current traces measured in Capan-1 cells upon exposure to different inhibitors. b Quantification of CaCC currents at +67 mV recorded with inhibitors compared to currents in presence of DMSO; currents of siANO1 cells were compared to those of MOCK transfected cells. c Steady-state I–V relationships of cells transfected with either scrambled siRNA (MOCK) or siRNA targeting ANO1. d Densitometric quantification of Western blot analysis of siRNA knockdown. β-Actin was used as a loading control. […]

[6] = tested on: AsPC-1 cells; assay: Scratch wound healing assay; type: cell-based, human; conditions: AsPC-1, siRNA 50 nM vs scrambled 5 nM, 5 μM aphidicolin
Experimental: Cells were seeded into Essen ImageLock 96-well plates. Cells were transfected with siRNA shortly after cells completely attached at 80 % confluency. […] The wound confluence was obtained and analyzed by using the IncuCyte phase-contrast imaging and scratch wound assay system and software (Essen Bioscience, USA). Wound closure was assessed by comparing the mean relative wound density (%RWD) according to the following formula: % RWD = 100 × w(t) − w(0)/[…]. Here, w(t) is the density of wounded area at time t and c(t) is the density of cell region at time t. Each experiment was conducted in triplicates.
We therefore assessed a possible contribution of ANO1 in PDAC cell migration using wound healing assay. […] The experiments were conducted in the presence of 5 μM aphidicolin to rule out a possible effect on cell proliferation. […] AsPC-1 cells were therefore not well suited for studies of lateral motility.
Fig. 9 ANO1 supports migration of PDAC cells. Wound healing assay is shown as relative wound density (density of wounded area relative to confluency of cell region) over time. Aphidicolin (5 μM) was added to stop proliferation. a AsPC-1 cells and b BxPC-3 cells after transfection with either scrambled siRNA (5 nM) or siRNA targeting ANO1 (50 nM). c BxPC-3 cells in presence of different inhibitors. Data shown represents mean ± s.e.m. of n = 4 experiments; each run was carried out in triplicates

CC(C)(C)C1CCc2c(sc(NC(=O)c3ccco3)c2C(=O)O)C1 (stereo not drawn) [CaCCinh-A01, 6-(1,1-dimethylethyl)-2-[(2-furanylcarbonyl)amino]-4,5,6,7-tetrahydrobenzo[b]thiophene-3-carboxylic acid]
proliferation (BrdU incorporation) [1]: decreased proliferation in Capan-1 slightly

CCc1c(C)nc(SCC(=O)Nc2nc(-c3ccc(OC)cc3)cs2)[nH]c1=O [T16Ainh-A01, 2-[(5-Ethyl-1,6-dihydro-4-methyl-6-oxo-2-pyrimidinyl)thio]-N-[4-(4-methoxyphenyl)-2-thiazolyl]acetamide]
protection from apoptosis (Caspase-3 activity) [2]: less pronounced | inhibition of Ca2+-activated Cl− secretion ([3]; 10 μM): relatively weak inhibition | UTP-induced Cl− secretion in short-circuit current recordings ([3]; cells prior exposed to 10 μM): significantly attenuated | proliferation (BrdU incorporation) [4]: showed inhibited proliferation

siRNA targeting ANO1: Predesigned siRNA oligo from Sigma-Aldrich, 5′-CCUUCAACGUCAGUGACUU[dT][dT]-3′, 5′-AAGUCACUGACGUUGAAGG[dT][dT]-3′ (RNA, 3' dTdT, backbone not given here)
ANO1 protein expression decreased to ([5]; AsPC-1 cells): 54 ± 14% | ANO1 protein expression decreased to ([5]; BxPC-3 cells): 20 ± 7% | ANO1 protein expression decreased to ([5]; Capan-1 cells): 37 ± 8% | migration (relative wound density over time) [6]: significantly decreased migration
